“And” between values parts separate entries of the source, which are not always exact repeats. Equal entries are not always repeated.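 Results reflect a 48-hour exposure of cells in 96-well plates to compound at five concentrations. The concentration for 50% growth inhibition is given as GI50. TGI: concentration producing complete growth inhibition.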
Key:
Assay in all cases: NCI-60 cell line screen, 48 h
LOX IMVI melanoma = system: LOX IMVI melanoma
OVCAR-4 ovarian = system: OVCAR-4 ovarian
RPMI-8226 leukemia = system: RPMI-8226 leukemia
CAKI-1 renal = system: CAKI-1 renal
NCI-H226 lung = system: NCI-H226 lung
SF-539 CNS = system: SF-539 CNS
A498 renal = system: A498 renal
NCI-H460 lung = system: NCI-H460 lung
SF-268 CNS = system: SF-268 CNS
COLO 205 colon = system: COLO 205 colon

Structure (SMILES) | TGI (LOX IMVI melanoma) | TGI (OVCAR-4 ovarian) [µM] | TGI (RPMI-8226 leukemia) [µM] | TGI (CAKI-1 renal) [µM] | TGI (NCI-H226 lung) [µM] | TGI (SF-539 CNS) | TGI (A498 renal) [µM] | TGI (NCI-H460 lung) [µM] | GI50 (LOX IMVI melanoma) | GI50 (OVCAR-4 ovarian) | GI50 (RPMI-8226 leukemia) | GI50 (CAKI-1 renal) | TGI (SF-268 CNS) [µM] | GI50 (NCI-H226 lung) | GI50 (SF-539 CNS) | GI50 (COLO 205 colon) | TGI (COLO 205 colon) | GI50 (A498 renal) | GI50 (NCI-H460 lung) | GI50 (SF-268 CNS) [µM]
O=C1c2cccc([N+](=O)[O-])c2C(=O)c2nccnc21 | 2.68 µM | 2.8 | 7.92 | 16.4 | 4.06 | 2.93 µM | 17.3 | 2.79 |  |  |  |  |  |  |  |  |  |  |  | 
CN(C)c1ccc(/C=C(\C#N)c2ccccc2)cc1 | > 100 µM and 43.1 µM | > 100 |  |  | > 100 | 1.34 µM and 4.48 µM |  |  | 0.777 µM and 0.605 µM and 0.404 µM | 3.18 µM and 2.42 µM and 1.75 µM | 0.288 µM and 0.648 µM | 0.244 µM and 0.586 µM and 0.591 µM | > 100 | 4.7 µM and 13.3 µM and 24 µM | 0.324 µM and 0.481 µM | 0.384 µM and 0.42 µM and 0.353 µM | 2.32 µM and 5.35 µM and 2.76 µM | 0.633 µM and 0.281 µM and 0.316 µM | 0.356 µM and 0.415 µM and 0.431 µM | 
CC(=O)N(C)c1cc(NCc2ccccc2)ccc1OCc1ccccc1 | 36.2 µM | 36.6 |  | 38.6 | 35.9 | 32 µM | 30.8 | 33.4 |  |  |  |  | 30.4 |  |  |  | 54.8 µM |  |  | 
O=C(O)c1ccc(NCc2nc3ccccc3[nH]2)cc1 | > 100 µM | > 100 | > 100 | > 100 | > 100 | > 100 µM | > 100 | > 100 | > 100 µM | > 100 µM | > 100 µM | > 100 µM | > 100 | > 100 µM | > 100 µM | > 100 µM | > 100 µM |  | > 100 µM | > 100
O=C(CN(Cc1ccccc1)Cc1ccccc1)N1CCc2c([nH]c3ccccc23)C1c1cccnc1 (configuration not stated) | 39.5 µM | > 100 | 4.53 | > 100 |  | 26.6 µM | 61.5 | 89.9 |  |  |  |  | > 100 |  |  |  |  |  |  | 
C[C@@H]1CC[C@H]2[C@@H](C)C(OC/C=C/COC3O[C@@H]4O[C@@]5(C)CC[C@H]6[C@H](C)CC[C@@H]([C@H]3C)[C@@]46OO5)O[C@@H]3O[C@@]4(C)CC[C@@H]1[C@]32OO4 (some centres not stated) | 11.4 µM |  | 5.77 | 2.87 | 0.832 |  | > 100 | > 41.4 | < 0.01 µM |  | < 0.01 µM | 0.046 µM | > 47.1 | < 0.0206 µM |  | < 0.01 µM | 0.228 µM | 15.7 µM | < 0.01 µM | 0.045
Cc1cc(Cl)ccc1NC(=O)CC1SC(=NC(=O)c2ccccc2Cl)NC1=O (configuration not stated) | 38.6 µM | 38.6 | 38.4 | 33.9 | 75 | 35.4 µM | > 100 | > 100 |  |  |  |  | 36.7 |  |  |  |  |  |  | 
CS(=O)(=O)O[C@H]1C(=O)N(c2cc3c4ccccc4ccc3c3ccccc23)[C@@H]1c1ccccn1 | > 100 µM | > 100 | > 100 | > 100 | > 100 | 2.96 µM |  | > 100 | 0.588 µM | 1.62 µM | 0.467 µM | 0.413 µM | > 100 | 5.36 µM | 0.316 µM | 0.398 µM | 1.95 µM |  | 2.39 µM | 0.707
